This is an account of results in patent publication US10815238B2, “Antimicrobial compounds and methods of making and using the same” (BIOVERSYS AG, priority 2013, dated 2020).

The assay has as its system Eschericia coli (E. coli) strain ATCC25922. Briefly: Standard microdilution assay, MIC against E. coli ATCC25922. The assay is classed as cell-based. The note with it: Escherichia coli; E. coli strain ATCC25922, standard microdilution assay; cutoff 16 micrograms/mL; read-out: MIC E. Coli. On the procedure:
The in vitro activity of the compounds of the present invention can be determined. Antimicrobial testing is typically performed to determine the minimum inhibitory concentration (MIC). Minimum inhibitory concentrations (MICs) are determined by the microdilution method in a final volume of 100 μl according to protocols outlined by The Clinical and Laboratory Standards Institute (CLSI). Performance standards for reference strains are assessed within the same experimental design to maintain quality control. See, for example, Clinical Laboratory Standards Institute: Methods for dilution antimicrobial susceptibility tests for bacteria that grow aerobically M7-A8. Approved Standard-Eighth Edition. Wayne, Pa.: CLSI; December 2008; and Clinical Laboratory Standards Institute: Performance Standards for Antimicrobial Susceptibility Testing M100-S20; Approved Standard-Twentieth Edition. Wayne, Pa.: CLSI; June 2010.
The compounds of the present invention were tested for antimicrobial activity. The Compounds 1-582 were run against Eschericia coli (E. coli) strain ATCC25922 and Compounds 320-582 were run against Staphylococcus aureus (S. aureus) 11540 strain using a standard microdilution assay to determine minimum inhibitory concentrations (MICs). […] It will be recognized by one skilled in the art that the compounds can be assessed against other bacterial organisms and that the presentation of data for activity against Eschericia coli and Staphylococcus aureus are illustrative and in no way is intended to limit the scope of the present invention. The compounds of the present invention can be assayed against a range of other microorganisms depending upon the performance activity desired to be gathered. Furthermore, the “+” and “−” representation and the selection of a cutoff value of 16 micrograms/mL is also illustrative and in no way is intended to limit the scope of the present invention.
On to `N=C(N)NCCCN[C@@H](CCF)c1ccc(-n2cc3cc(-c4cc(CCC[C@@H](N)CF)cc(Cl)c4F)[nH]c3nc2=O)cc1` [Compound 168], for which the MIC was less than 16 µg/mL. As for `C[C@H](N)CCCc1cc(Cl)c(F)c(-c2cc3cn(-c4ccc(CNCCC(=O)O)cc4)c(=O)nc3[nH]2)c1` [Compound 139], the figure is more than 16 µg/mL; as for `C=C[C@H](N)COCc1cc(SC(F)(F)F)cc(-c2cc3cn(-c4ccc([C@H](C)NCCCNC(=N)N)cc4)c(=O)nc3[nH]2)c1` [Compound 63], less than 16 µg/mL. Take `C=CCN(CCCN[C@@H](C)c1ccc(-n2cc3cc(-c4cc(CCC[C@H](C)N)cc(C(F)(F)F)c4)[nH]c3nc2=O)cc1)C(=N)N` [Compound 215]: the MIC is less than 16 µg/mL. With `C[C@H](NCCCNC(=N)N)c1ccc(-n2cc3cc(-c4cc(CCC[C@H](C)NC(=N)N)cc(Cl)c4F)[nH]c3nc2=O)cc1` [Compound 309], the MIC was less than 16 µg/mL.

For the compound `C[C@H](NCCCNC(=N)N)c1ccc(-n2cc3cc(-c4cc(CCC[C@@H](N)CO)cc(SC(F)(F)F)c4)[nH]c3nc2=O)cc1` [Compound 31], the MIC was less than 16 µg/mL. On to `CC[C@H](N)CCNCc1ccc(-n2cc3cc(-c4cc(CCC[C@H](C)N)cc(Cl)c4F)[nH]c3nc2=O)cc1` [Compound 152], for which the MIC was less than 16 µg/mL. As for `C[C@H](N)CCCc1cc(Cl)c(F)c(-c2cc3cn(-c4ccc([C@H](C)NCC[C@@H](C)N)cc4)c(=O)nc3[nH]2)c1` [Compound 193], the MIC was less than 16 µg/mL. As to `C[C@H](N)CCCc1cc(Cl)c(F)c(-c2cc3cn(-c4ccc(CNCC(=O)O)cc4)c(=O)nc3[nH]2)c1` [Compound 115], the MIC is more than 16 µg/mL. The same measure for `C=C[C@H](N)CC[C@H](O)c1cc(SC(F)(F)F)cc(-c2cc3cn(-c4ccc([C@H](C)NCCCNC(=N)N)cc4)c(=O)nc3[nH]2)c1` [Compound 91]: less than 16 µg/mL. The same measure for `C[C@H](N)CCCc1cc(Cl)c(F)c(-c2cc3cn(-c4ccc([C@@H](N)CCCCNC(=N)N)cc4)c(=O)nc3[nH]2)c1` [Compound 118]: less than 16 µg/mL; for `C[C@H](N)CCCc1cc(-c2cc3cn(-c4ccc([C@@H](NCCCNC(=N)N)c5ccc(S(C)(=O)=O)cc5)cc4)c(=O)nc3[nH]2)cc(C(F)(F)F)c1` [Compound 60]: more than 16 µg/mL; for `C[C@H](N)CCCc1cc(Cl)c(F)c(-c2cc3cn(-c4ccc([C@H](C)N[C@H](CCO)CCNC(=N)N)cc4)c(=O)nc3[nH]2)c1` [Compound 291]: less than 16 µg/mL. The same measure for `C[C@H](NCCCNC(=N)N)c1ccc(-n2cc3cc(-c4cc(CCC[C@H](C)NC(=O)OCc5ccccc5)cc(Cl)c4F)[nH]c3nc2=O)cc1` [Compound 67]: less than 16 µg/mL. `C[C@H](NCCCNC(=N)N)c1ccc(-n2cc3cc(-c4cc(C[C@H]5C[C@H](N)CCO5)cc(OC(F)(F)F)c4)[nH]c3nc2=O)cc1` [Compound 38]: the MIC is less than 16 µg/mL. For `CC(C)[C@H](N)CCNCc1ccc(-n2cc3cc(-c4cc(CCC[C@H](C)N)cc(Cl)c4F)[nH]c3nc2=O)cc1` [Compound 155], the minimal inhibitory concentration (MIC) was less than 16 µg/mL. As for `C[C@H](N)CCCc1cc(OC(F)(F)F)c(F)c(-c2cc3cn(-c4ccc([C@H](C)NCC[C@@H](CCc5ccccc5)NC(=N)N)cc4)c(=O)nc3[nH]2)c1` [Compound 259], the figure is less than 16 µg/mL; as for `COc1ccc(Cn2cc(C[C@H](NCCCNC(=N)N)c3ccc(-n4cc5cc(-c6cc(CCC[C@H](C)N)cc(C(F)(F)F)c6)[nH]c5nc4=O)cc3)nn2)cc1` [Compound 42], less than 16 µg/mL.

For `C[C@H](N)CCCc1cc(OC(F)(F)F)c(F)c(-c2cc3cn(-c4ccc([C@H](C)N[C@@H](C)CCNC(=N)N)cc4)c(=O)nc3[nH]2)c1` [Compound 232], the MIC was less than 16 µg/mL. The same measure for `C[C@H](N)CCCc1cc(Cl)c(F)c(-c2cc3cn(-c4ccc([C@H](C)NCC[C@@H](CCO)NC(=N)N)cc4)c(=O)nc3[nH]2)c1` [Compound 247]: less than 16 µg/mL. As for `C[C@H](N)CCCc1cc(SC(F)(F)F)cc(-c2cc3cn(-c4ccc([C@@H](NCCCNC(=N)N)C(=O)N5CCNCC5)cc4)c(=O)nc3[nH]2)c1` [Compound 14], the figure is less than 16 µg/mL; as for `C=CC[C@H](CCN[C@@H](C)c1ccc(-n2cc3cc(-c4cc(CCC[C@H](C)N)cc(OC(F)(F)F)c4F)[nH]c3nc2=O)cc1)NC(=N)N` [Compound 260], less than 16 µg/mL. As to `O=c1nc2[nH]ccc2cn1-c1ccc(CNCc2cccnc2)cc1` [Compound 109], the MIC was more than 16 µg/mL. For `C[C@H](N)CCCc1cc(Cl)c(F)c(-c2cc3cn(-c4ccc(CNCC[C@@H](N)CN)cc4)c(=O)nc3[nH]2)c1` [Compound 182], the MIC was less than 16 µg/mL. As for `CC[C@H](CCNCc1ccc(-n2cc3cc(-c4cc(CCC[C@H](C)N)cc(Cl)c4F)[nH]c3nc2=O)cc1)NC(=N)N` [Compound 198], the figure is less than 16 µg/mL; as for `C[C@H](N)CCCc1cc(Cl)c(F)c(-c2cc3cn(-c4ccc([C@H](C)NCCCN)cc4)c(=O)nc3[nH]2)c1` [Compound 107], less than 16 µg/mL; as for `C=CCNCCCN[C@@H](C)c1ccc(-n2cc3cc(-c4cc(CCC[C@H](C)N)cc(C(F)(F)F)c4)[nH]c3nc2=O)cc1` [Compound 216], less than 16 µg/mL.

For the compound `C[C@H](NCCCNC(=N)N)c1ccc(-n2cc3cc(-c4cc(SC(F)(F)F)cc([C@H](O)CCC(N)C(O)CO)c4)[nH]c3nc2=O)cc1` (stereo partly drawn) [Compound 134], the MIC was less than 16 µg/mL. As for `C[C@H](NCCCNC(=N)N)c1ccc(-n2cc3cc(-c4cc(CCC[C@@H](N)COC(=O)c5ccccc5)cc(Cl)c4F)[nH]c3nc2=O)cc1` [Compound 300], the figure is less than 16 µg/mL. As for `CSC[C@@H](CCN[C@@H](C)c1ccc(-n2cc3cc(-c4cc(CCC[C@H](C)N)cc(Cl)c4F)[nH]c3nc2=O)cc1)NC(=N)N` [Compound 287], the figure is less than 16 µg/mL.

For `C[C@H](N)CCCc1cc(Cl)c(F)c(-c2cc3cn(-c4ccc([C@H](C)NCC[C@@H](CCCN)NC(=N)N)cc4)c(=O)nc3[nH]2)c1` [Compound 281], the MIC was less than 16 µg/mL. With `C=C[C@@H](N)CCNCc1ccc(-n2cc3cc(-c4cc(CCC[C@H](C)N)cc(Cl)c4F)[nH]c3nc2=O)cc1` [Compound 173], the MIC is less than 16 µg/mL. Turning to `C[C@H](N)CCCc1cc(Cl)c(F)c(-c2cc3cn(-c4ccc(CNCC[C@@H](C)NC(=N)N)cc4)c(=O)nc3[nH]2)c1` [Compound 188], the minimum inhibitory concentration (MIC) is less than 16 µg/mL. As for `O=C(O)CNCc1ccc(-n2cc3cc[nH]c3nc2=O)cc1` [Compound 114], the figure is more than 16 µg/mL; as for `C[C@H](N)CCCc1cc(-c2cc3cn(-c4ccc([C@H](C)NCC[C@@H](C)N)cc4)c(=O)nc3[nH]2)cc(C(F)(F)F)c1` [Compound 199], less than 16 µg/mL.

Regarding `C[C@H](N)CCCc1cc(Cl)c(F)c(-c2cc3cn(-c4ccc([C@@H](N)C(=O)NCCNC(=N)N)cc4)c(=O)nc3[nH]2)c1` [Compound 256], the MIC was less than 16 µg/mL. For the compound `O=c1nc2[nH]ccc2cn1-c1ccc(CNCc2ccncc2)cc1` [Compound 126], the MIC is more than 16 µg/mL. As for `CCc1c(F)c(CCC[C@H](C)N)cc(-c2cc3cn(-c4ccc([C@H](C)NCCCN)cc4)c(=O)nc3[nH]2)c1F` [Compound 217], the figure is less than 16 µg/mL; as for `C[C@H](N)CCCc1cc(SC(F)(F)F)cc(-c2cc3cn(-c4ccc([C@@H](NCCCNC(=N)N)c5cccnc5)cc4)c(=O)nc3[nH]2)c1` [Compound 66], less than 16 µg/mL; as for `C[C@H](N)CCCc1cc(SC(F)(F)F)cc(-c2cc3cn(-c4ccc([C@H](Cc5c[nH]nn5)NCCCNC(=N)N)cc4)c(=O)nc3[nH]2)c1` [Compound 48], less than 16 µg/mL.

In the case of `C[C@H](N)CCCc1cc(Cl)c(F)c(-c2cc3cn(-c4ccc(CNCC[C@@H](N)CCO)cc4)c(=O)nc3[nH]2)c1` [Compound 184], the MIC was less than 16 µg/mL. As for `C[C@H](N)CCCc1cc(Cl)c(F)c(-c2cc3cn(-c4ccc([C@H](C)NCC[C@H](CO)NC(=N)N)cc4)c(=O)nc3[nH]2)c1` [Compound 262], the figure is less than 16 µg/mL; as for `CC[C@H](NCCCNC(=N)N)c1ccc(-n2cc3cc(-c4cc(CCC[C@H](C)N)cc(OC(F)(F)F)c4F)[nH]c3nc2=O)cc1` [Compound 227], less than 16 µg/mL. In the case of `C[C@H](N)CCCc1cc(SC(F)(F)F)cc(-c2cc3cn(-c4ccc(CNCc5cccnc5)cc4)c(=O)nc3[nH]2)c1` [Compound 113], the MIC was more than 16 µg/mL. The same measure for `C=CC[C@@H](NCCCNC(=N)N)c1ccc(-n2cc3cc(-c4cc(CCC[C@H](C)N)cc(SC(F)(F)F)c4)[nH]c3nc2=O)cc1` [Compound 1]: less than 16 µg/mL. For `C[C@H](N)CCCc1cc(OC(F)(F)F)c(F)c(-c2cc3cn(-c4ccc([C@H](C)NCC[C@@H](CCCO)NC(=N)N)cc4)c(=O)nc3[nH]2)c1` [Compound 240], the MIC is less than 16 µg/mL. As to `C[C@H](N)CCCc1cc(Cl)c(F)c(-c2cc3cn(-c4ccc(C[C@H](N)CCCNC(=N)N)cc4)c(=O)nc3[nH]2)c1` [Compound 230], the MIC was less than 16 µg/mL. With `C[C@H](N)CCCc1cc(Cl)c(F)c(-c2cc3cn(-c4ccc([C@H](CCO)NCCCNC(=N)N)cc4)c(=O)nc3[nH]2)c1` [Compound 15], the MIC was less than 16 µg/mL.
